# In ChEMBL document CHEMBL3352543, “Synthesis and structure-activity relationship of novel cinnamamide derivatives as antidepressant agents” (Bioorg Med Chem Lett, 2014):
# What was measured:
# Mus musculus [1] = experiment: Toxic CNS activity in C57BL/6 mouse assessed as locomotor activity by measuring exploratory activity counts at 10 mg/kg, ig by open-field test (reference value: 94.50 +/- 6.18 counts); assay type: toxicity, organism-based; design: dose 10 mg/kg, route intragastric; conditions: in vivo, po
# Mus musculus [2] = experiment: Antidepressant activity in C57BL/6 mouse assessed as decrease in immobility duration at 10 mg/kg, ig by tail suspension test; assay type: functional; conditions: C57BL/6, Tail, po, route intragastric
# Mus musculus [3] = experiment: Antidepressant activity in C57BL/6 mouse assessed as decrease in immobility duration at 10 mg/kg, ig by forced swim test; assay type: functional; conditions: C57BL/6, po, route intragastric
# [4] = Solubility in water; assay type: physicochemical; conditions: buffer
# Mus musculus [5] = experiment: Antidepressant activity in ig dosed C57BL/6 mouse assessed as decrease in immobility duration by tail suspension test; assay type: functional, organism-based
# Mus musculus [6] = experiment: Antidepressant activity in ig dosed C57BL/6 mouse assessed as decrease in immobility duration by forced swim test; assay type: functional, organism-based
# Mus musculus [7] = experiment: Antidepressant activity in C57BL/6 mouse assessed as decrease in immobility duration at 2.5 mg/kg, ig by forced swim test; assay type: functional; conditions: C57BL/6, po, route intragastric
# Mus musculus [8] = experiment: Antidepressant activity in C57BL/6 mouse assessed as decrease in immobility duration at 5 mg/kg, ig by forced swim test; assay type: functional; conditions: C57BL/6, po, route intragastric
Structure (SMILES),Activity (Mus musculus [1]),inhibition in vivo at 10 mg/kg (Mus musculus [2]) [%],also measured
CNCCC(Oc1ccc(C(F)(F)F)cc1)c1ccccc1 (stereo not drawn) [FLUOXETINE],102,39.4,inhibition in vivo at 10 mg/kg (Mus musculus [3]): 29%
O=C(/C=C/c1cc2c(c(C(F)(F)F)c1)OCO2)N1CCNCC1,91.54,21.8,solubility [4]: soluble
O=C(c1cc2c(c(C(F)(F)F)c1)OCO2)N1CCCCC1,87.4,37.1,–
CCN(CC)C(=O)/C=C/c1cc2c(c(C(F)(F)F)c1)OCO2,95.3,40.2,–
CN1CCN(C(=O)/C=C/c2cc3c(c(C(F)(F)F)c2)OCO3)CC1,86.2,24,solubility [4]: soluble
CC(C)CNC(=O)/C=C/c1ccc2c(c1)OCO2 [FOGARAMIDE],89.24,13.2,–
CC(C)CNC(=O)c1cc2c(c(C(F)(F)F)c1)OCO2,93.2,33.1,–
CN(C)C(=O)/C=C/c1cc2c(c(C(F)(F)F)c1)OCO2,84,12.6,–
CC(C)CNC(=O)/C=C/c1cc2c(c([N+](=O)[O-])c1)OCO2,98,6.4,–
O=C(/C=C/c1cc2c(c(C(F)(F)F)c1)OCO2)N1CCCCC1,83.6,31.5,–
CC(C)CNC(=O)/C=C/c1cc(I)c2c(c1)OCO2,94.42,15.1,–
CC(C)CNC(=O)/C=C/c1cc2c(c(C(F)(F)F)c1)OCO2,99.4,42.5,inhibition (Mus musculus [5]): Dose-dependent effect; inhibition (Mus musculus [6]): Dose-dependent effect; inhibition in vivo at 2.5 mg/kg (Mus musculus [7]): 20.8%; inhibition in vivo at 5 mg/kg (Mus musculus [8]): 34.4%; inhibition in vivo at 10 mg/kg (Mus musculus [3]): 43.5%
CC(C)CNC(=O)CCc1cc2c(c(C(F)(F)F)c1)OCO2,86.6,28.8,–
CC(C)CNC(=O)/C=C/c1cc(Cl)c2c(c1)OCO2,94.75,29.1,–
COc1cc(/C=C/C(=O)NCC(C)C)cc2c1OCO2,100.92,11.7,–
